The results in this text go back to patent publication US8722897B2, “Metal complexes of thiourea and derivatives as metal delivering anti-cancer and anti-inflammatory agents” (priority 2010, dated 2014).

One data set concerns the target T1, NADPH-reduced TrxR1 (Rattus norvegicus, UniProt O89049).
T1 sequence (O89049 1-499): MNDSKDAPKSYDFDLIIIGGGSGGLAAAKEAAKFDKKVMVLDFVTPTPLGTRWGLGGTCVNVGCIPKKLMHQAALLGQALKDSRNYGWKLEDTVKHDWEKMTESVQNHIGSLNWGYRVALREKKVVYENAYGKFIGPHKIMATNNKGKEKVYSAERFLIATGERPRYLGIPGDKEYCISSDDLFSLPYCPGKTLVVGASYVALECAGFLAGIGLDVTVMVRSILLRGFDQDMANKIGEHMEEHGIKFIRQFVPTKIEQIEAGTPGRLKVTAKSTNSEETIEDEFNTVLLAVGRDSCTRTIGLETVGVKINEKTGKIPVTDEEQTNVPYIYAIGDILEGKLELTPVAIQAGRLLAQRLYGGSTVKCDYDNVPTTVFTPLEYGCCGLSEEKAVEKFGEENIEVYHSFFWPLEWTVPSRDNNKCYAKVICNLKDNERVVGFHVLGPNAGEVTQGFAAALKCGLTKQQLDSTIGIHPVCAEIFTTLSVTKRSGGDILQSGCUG
Kind of data set: BIAM labeling of cysteine and selenocysteine residues of TrxR1. The following applies: TrxR 0.1 μM, compound 4 μM, pH 8.5 and pH 6.5. It counts as biochemical. From the text: The reduced TrxR has free —SH (Cys496) and —SeH (Sec497) groups at the C-terminal active site, making it vulnerable to be attacked by Au(I). ^20, 22, 23 These redox active sites can be probed by biotinylated iodoacetamide (BIAM), which alkylates the free —SH and —SeH groups; and the resulting adduct can be detected by western blot experiment using streptavidin-linked horseradish peroxidase (FIG. 10). ^26, 27 It has been shown that these residues can be selectively alkylated by BIAM by adjusting the pH. At pH 8.5, both —SH and —SeH are alkylated. At pH 6.5, only the —SeH is alkylated owing to the low pKa value for selenocysteine, and thus a weaker streptavidin signal was obtained in which case. […] It is highly likely that the formation of the tight enzyme-inhibitor complex (EI*) involves covalent modification of the redox active selenocysteine and cysteine residue via the Au(I) complex. ^28
NADPH-reduced TrxR1 (0.1 μM) and 1 (4 μM) were incubated in reaction buffer (100 mM phosphate buffer, pH 7.4, 1 mM EDTA) at room temperature for 1 h. […] The separated proteins were transferred to nitrocellulose membrane and the BIAM labeled proteins were detected with horseradish peroxidase conjugated streptavidin and enhanced chemiluminescence detection.

Another data set has as its target T2, TrxR1 (Rattus norvegicus, UniProt O89049).
T2 sequence (O89049 1-499): T1 sequence (O89049 1-499)
The data set is described as follows: biochemical. The settings on record: for Ki: progress curve analysis. On the procedure:
This was further studied by progress curve analysis (FIG. 8). ^24, 25 1 was added in excess (3-100 nM) to a reaction mixture containing 0.2 mM NADPH, 1 nM TrxR and 3 mM disulfide substrate 5,5′-dithiobis(2-nitrobenzoic acid) (DTNB) in phosphate buffer (pH 7.4). […] This was analyzed using Eq. 1 (Example 6), where P is the product concentration, vi and vf are the initial and final steady-state velocities, respectively, and kapp is the apparent first-order rate constant for establishment of the final steady-state inhibition. A plot of the kapp against the inhibitor concentrations followed a hyperbolic function (FIG. 8B). This is indicative of a two-step, tight-binding inhibition mechanism:
[formula] where EI is the initial collision complex, k3 is the forward isomerization rate, and k4 is the reverse isomerization rate. In this scheme, binding involves rapid formation of an initial collision complex (EI) that subsequently undergoes isomerization to the final slow dissociating enzyme-inhibitor complex (EI*). The k3, k4 and the dissociation constant of the initial collision complex EI (Ki′) can be obtained by fitting the data to Eq. 2.
1 was added in excess (3-100 nM) to a reaction mixture containing 0.2 mM NADPH, 1 nM TrxR1, 3 mM disulfide substrate 5,5′-dithiobis(2-nitrobenzoic acid) (DTNB), 100 mM phosphate buffer, pH 7.4 and 1 mM EDTA. The progress curves are non-linear, showing two-phase equilibria typical of slow-onset tight-binding inhibition. The data was fit into Eq. 1 using GraphPad Prism 3.0 software, P=vft+((vi−vf/kapp)(1−e^−kappt) (1) where P is the product concentration, vi and vf are the initial and final steady-state velocities, respectively, and kapp is the apparent first-order rate constant for establishment of the final steady-state inhibition. A plot of the kapp against the inhibitor concentrations followed a hyperbolic function (FIG. 8B). This is indicative of a two-step, tight-binding inhibition mechanism:
[formula] where EI is the initial collision complex, k3 is the forward isomerization rate, and k4 is the reverse isomerization rate. […]

Data set [1] in a line: Cytotoxicity assay (MTT), SUNE1. The following applies: human, SUNE1 cells.
Description: Cells were seeded in a 96-well flat-bottomed microplate at 20,000 cells/well in 150 μL of growth medium solution. The compounds were dissolved in dimethyl sulfoxide. Serial dilution of each complex was added to each well with final concentration of DMSO≦1%. The microplate was incubated at 37° C., 5% CO2, 95% air in a humidified incubator for 72 h. After incubation, 10 μL MTT reagent (5 mg/mL) was added to each well. The microplate was re-incubated at 37° C. in 5% CO2 for 4 h. Solubilization solution (10% SDS in 0.01 M HCl) (100 μL) was added to each well. The microplate was left in an incubator for 24 h. Absorbances at 550 nm were measured by a microplate reader.
A further data set has as its target T3, Recombinant rat TrxR1 (Rattus norvegicus, UniProt O89049).
T3 construct: purchased ICMO Corp, Sweden (so in the source)
T3 sequence (O89049 1-499): T1 sequence (O89049 1-499)
The data set is described as follows: biochemical. The settings on record: preformed EI*. On the procedure:
1 nM Recombinant rat TrxR1 (ICMO Corp, Sweden) was reduced with 0.2 mM NADPH and then incubated with 0.3-10 nM of 1 for 30 min in a buffer of 100 mM phosphate buffer, pH 7.4 and 1 mM EDTA. The residual activities were measured using 0.75, 1.5 or 3 mM DTNB (FIG. 7A). The data were fit into Eq. 1 using GraphPad Prism 3.0 software. vs/vo=(Et−Ki−It+((It+Ki′−Et)^2+(4KiEt))^1/2)/(2Et) (1) Eq. 1 describes the rate law of tight-binding inhibition in which case the inhibitor concentration is substantially depleted owing to formation of enzyme-inhibitor complex. In this equation, vo is the observed velocity in the absence of inhibitor, vs is the steady-state velocity in the presence of inhibitor, Et is the total enzyme concentration, and I is the inhibitor concentration. […] Ki=Ki*(1+S/Km) (2) Determination of Ki by Progress Curve Analysis ^35, 36 (FIG. 8)

As a reminder, the IC50 is the concentration that gives 50% inhibition. Low values mean greater potency in that assay, high ones weaker potency in that assay. `COc1ccc(N2CCN(c3ccc(OC)cc3)C2=[S+][Au-][S+]=C2N(c3ccc(OC)cc3)CCN2c2ccc(OC)cc2)cc1` [complex 1, [Au(TU)2]Cl]: the “BIAM labeling of TrxR” value at NADPH-reduced TrxR1 is “inhibited”. The “recovery of enzyme activities after removal of the free inhibitors by ultrafiltration” value at TrxR1 is “could not be recovered”. Also, the Ki at TrxR1 (dissociation constant of the initial collision complex EI (Ki′)) was determined as 1.39 nM; on TrxR1 (overall inhibitory constant Ki*, Eq. 3) it was 0.018 nM; at Recombinant rat TrxR1 (apparent inhibitory constant (Ki), 1 nM TrxR1, 30 min preincubation, steady state rate law) it was 0.67 nM; at Recombinant rat TrxR1 (inhibitory constant Ki*, corrected for substrate competition, Km 0.2 mM) it was 0.036 nM. The IC50 at 72 h in data set [1] is 10800 ± 200 nM.
